Laboratory results taken from article PMC10385824, “Antiproliferative and Tubulin-Destabilising Effects of 3-(Prop-1-en-2-yl)azetidin-2-Ones and Related Compounds in MCF-7 and MDA-MB-231 Breast Cancer Cells” (Pharmaceuticals, 2023).
Like-named read-outs stand apart in the source and are kept apart here.

Columns and labels:
[1] = tested on: purified bovine brain tubulin; assay: Tubulin polymerization assay (light scattering, BK006 kit); assay type: biochemical; conditions: compound at 10 μM
Method in brief: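 Purified bovine brain tubulin (3 mg/mL) in PIPES 80 mM pH 6.9, EGTA, MgCl2, 1 mM GTP, 10% glycerol incubated at 37 °C with compound at 10 µM or vehicle (1% DMSO or EtOH). Assembly followed turbidimetrically at 340 nm; values are means of two independent assays.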

HL-60(TB) = assay: NCI-60 SRB screen, leukemia; assay type: cell-based, human; conditions: Homo sapiens
K-562 = assay: NCI-60 SRB screen, leukemia; assay type: cell-based, human; conditions: Homo sapiens, K562, 48 h
RPMI-8226 = assay: NCI-60 SRB screen, leukemia; assay type: cell-based, human; conditions: Homo sapiens
SR = assay: NCI-60 SRB screen, leukemia; assay type: cell-based, human; conditions: Homo sapiens, 48 h
EKVX = assay: NCI-60 SRB screen, non-small cell lung cancer; assay type: cell-based, human; conditions: Homo sapiens, 48 h
HOP-62 = assay: NCI-60 SRB screen, non-small cell lung cancer; assay type: cell-based, human; conditions: Homo sapiens
NCI-H460 = assay: NCI-60 SRB screen, non-small cell lung cancer; assay type: cell-based, human; conditions: Homo sapiens
NCI-H552 = assay: NCI-60 SRB screen, non-small cell lung cancer; assay type: cell-based, human; conditions: Homo sapiens, 48 h
HCT-116 = assay: NCI-60 SRB screen, colon cancer; assay type: cell-based, human; conditions: Homo sapiens
HT29 = assay: NCI-60 SRB screen, colon cancer; assay type: cell-based, human; conditions: Homo sapiens
SF295 = assay: NCI-60 SRB screen, CNS cancer; assay type: cell-based, human; conditions: Homo sapiens
SF539 = assay: NCI-60 SRB screen, CNS cancer; assay type: cell-based, human; conditions: Homo sapiens
SNB-75 = assay: NCI-60 SRB screen, CNS cancer; assay type: cell-based, human; conditions: Homo sapiens
DU-145 = assay: NCI-60 SRB screen, prostate cancer; assay type: cell-based, human; conditions: Homo sapiens
SK-MEL-28 = assay: NCI-60 SRB screen, melanoma; assay type: cell-based, human; conditions: Homo sapiens
OVCAR-4 = assay: NCI-60 SRB screen, ovarian cancer; assay type: cell-based, human; conditions: Homo sapiens
OVCAR-8 = assay: NCI-60 SRB screen, ovarian cancer; assay type: cell-based, human; conditions: Homo sapiens
SK-OV-3 = assay: NCI-60 SRB screen, ovarian cancer; assay type: cell-based, human; conditions: Homo sapiens
ACHN = assay: NCI-60 SRB screen, renal cancer; assay type: cell-based, human; conditions: Homo sapiens, 48 h
RXF 393 = assay: NCI-60 SRB screen, renal cancer; assay type: cell-based, human; conditions: Homo sapiens
SN12C = assay: NCI-60 SRB screen, renal cancer; assay type: cell-based, human; conditions: Homo sapiens, 48 h
UO-31 = assay: NCI-60 SRB screen, renal cancer; assay type: cell-based, human; conditions: Homo sapiens
HS 578T = assay: NCI-60 SRB screen, breast cancer; assay type: cell-based; conditions: Homo sapiens, 48 h
BT-549 = assay: NCI-60 SRB screen, breast cancer; assay type: cell-based, human; conditions: Homo sapiens
MDA-MB-468 = assay: NCI-60 SRB screen, breast cancer; assay type: cell-based, human; conditions: Homo sapiens
[2] = tested on: NCI 60 human cancer cell line panel; assay: NCI 60 cell line screen (SRB), panel values; conditions: for CC50: read-out: Mean LC50; for IC (TGI (total growth inhibition)): read-out: Mean TGI
SK-MEL-2 = assay: NCI-60 SRB screen, melanoma; assay type: cell-based, human; conditions: Homo sapiens; SK-MEL-2; five dose 0.01–100 µM, 48 h; read-out: GI50
[3] = HL-60(TB), five dose 0.01–100 µM, 48 h
[4] = Homo sapiens, 60 cell, read-out: Mean GI50, mean over all NCI 60 cell lines
[5] = five dose 0.01–100 µM, read-out: GI50

In the case of `C=C/C=C/C1C(=O)N(c2cc(OC)c(OC)c(OC)c2)C1c1ccc(OC)c(N)c1` (stereo not shown) [11r, (E)-4-(3-Amino-4-methoxyphenyl)-3-(buta-1,3-dien-1-yl)-1-(3,4,5-trimethoxyphenyl)azetidin-2-one], the Vmax ([1]; 37 °C, 340 nm) is reported as 0.0035 mOD/min, the “Fold Reduction in Vmax” value ([1]; relative to vehicle) is reported as 2.0 and the GI50 (HL-60(TB); [3]) is reported as 29.5 nM. The GI50 (HL-60(TB); HL-60, NCI screen) was less than 34 nM, the GI50 (K-562) was 39.3 nM and the GI50 (RPMI-8226; RPMI-8226, 48 h) was 34.8 nM. It also gave a GI50 (SR) of 33.5 nM, a GI50 (EKVX) of 88 nM and a GI50 (HOP-62; HOP-62, 48 h) of 52.5 nM. The GI50 (NCI-H460; NCI-H460, 48 h) was 33.2 nM, the GI50 (NCI-H552) was 16.9 nM and the GI50 (HCT-116; HCT-116, 48 h) was 27.2 nM. For the same compound, the IC50 (HT29; HT-29) was 34 nM, the GI50 (HT29; HT-29, 48 h) was 33.6 nM and the GI50 (SF295; SF-295, 48 h) was 30.1 nM. It also gave a GI50 (SF539; SF-539, 48 h) of 39 nM, a GI50 (SNB-75; SNB-75, 48 h) of 36.8 nM and a GI50 (DU-145; DU-145, 48 h) of 26 nM. The GI50 (SK-MEL-28; SK-MEL-28, 48 h) was greater than 100000 nM, the GI50 (OVCAR-4; OVCAR-4, 48 h) was 38.8 nM and the GI50 (OVCAR-8; OVCAR-8, 48 h) was 38.4 nM. The GI50 (SK-OV-3; SK-OV-3, 48 h) was 35.6 nM, the GI50 (ACHN) was 61.4 nM and the GI50 (RXF 393; RXF 393, 48 h) was 45.7 nM. It also gave a GI50 (SN12C) of 59.1 nM, a GI50 (UO-31; UO-31, 48 h) of 190 nM and a GI50 (HS 578T; Hs-578T) of 53 nM. The GI50 (BT-549; BT-549, 48 h) was 25.3 nM, the GI50 (MDA-MB-468; MDA-MB-468, 48 h) was 26.7 nM and the GI50 [2, 4] was less than 91.2 nM. It also gave a CC50 ([2]; Homo sapiens, 60 cell) of 77600 nM, an IC (TGI (total growth inhibition)) ([2]; Homo sapiens, 60 cell) of 38000 nM and a GI50 ([2]; read-out: Mean GI50, mean over all NCI 60 cell lines) of 91.2 nM.
Compound `COc1ccc(C2C(C(C)C)C(=O)N2c2cc(OC)c(OC)c(OC)c2)cc1OP(=O)(O)O` (stereo not shown) [15b, 5-(3-Isopropyl-1-(3,4,5-trimethoxyphenyl)-4-oxoazetidin-2-yl)-2-methoxyphenyl dihydrogen phosphate] has a GI50 (HL-60(TB); [3]) of 305 nM, a GI50 (K-562; read-out: GI50) of 374 nM and a GI50 (RPMI-8226; RPMI-8226, five dose 0.01–100 µM, 48 h, read-out: GI50) of 478 nM. For the same compound, the GI50 (SR; [5]) was 324 nM, the GI50 (HOP-62; HOP-62, five dose 0.01–100 µM, 48 h, read-out: GI50) was 374 nM and the GI50 (NCI-H460; NCI-H460, five dose 0.01–100 µM, 48 h, read-out: GI50) was 325 nM. The GI50 (NCI-H552; NCI-H552, five dose 0.01–100 µM, read-out: GI50) was 237 nM, the GI50 (HCT-116; HCT-116, five dose 0.01–100 µM, 48 h, read-out: GI50) was 319 nM and the GI50 (HT29; HT-29, HT29, five dose 0.01–100 µM, 48 h, read-out: GI50) was 3470 nM. It also gave a GI50 (SF295; SF-295, SF295, five dose 0.01–100 µM, 48 h, read-out: GI50) of 137 nM, a GI50 (SF539; SF-539, SF539, five dose 0.01–100 µM, 48 h, read-out: GI50) of 132 nM and a GI50 (SNB-75; SNB-75, five dose 0.01–100 µM, 48 h, read-out: GI50) of 116 nM. The GI50 (DU-145; DU-145, five dose 0.01–100 µM, 48 h, read-out: GI50) was 368 nM, the GI50 (SK-MEL-2) was 500 nM and the GI50 (SK-MEL-28; SK-MEL-28, five dose 0.01–100 µM, 48 h, read-out: GI50) was 389 nM. For the same compound, the GI50 (OVCAR-4; OVCAR-4, five dose 0.01–100 µM, 48 h, read-out: GI50) was 282 nM, the GI50 (OVCAR-8; OVCAR-8, five dose 0.01–100 µM, 48 h, read-out: GI50) was 300 nM and the GI50 (SK-OV-3; SK-OV-3, five dose 0.01–100 µM, 48 h, read-out: GI50) was 416 nM. It also gave a GI50 (ACHN; [5]) of 359 nM, a GI50 (RXF 393; RXF 393, five dose 0.01–100 µM, 48 h, read-out: GI50) of 282 nM and a GI50 (SN12C; [5]) of 463 nM. For the same compound, the GI50 (UO-31; UO-31, five dose 0.01–100 µM, 48 h, read-out: GI50) was 538 nM, the GI50 (HS 578T; HS 578T, five dose 0.01–100 µM, read-out: GI50) was 173 nM and the GI50 (BT-549; BT-549, five dose 0.01–100 µM, 48 h, read-out: GI50) was 411 nM. For the same compound, the GI50 (MDA-MB-468; MDA-MB-468, five dose 0.01–100 µM, 48 h, read-out: GI50) was 273 nM, the GI50 [2, 4] was 525 nM and the CC50 ([2]; Homo sapiens, 60 cell) was 93300 nM. The IC (TGI (total growth inhibition)) ([2]; Homo sapiens, 60 cell) was 44700 nM.
